Results reported in ChEMBL document CHEMBL2202979, “Development of macrocyclic inhibitors of HCV NS3/4A protease with cyclic constrained P2-P4 linkers” (Bioorg Med Chem Lett, 2012).

What was measured:
Genome polyprotein [1] = biological target: Genome polyprotein (Hepacivirus C, UniProt K7XJL6, A156T); experiment: Inhibition of HCV genotype 1b BK NS3/4A protease A156T mutant expressed in Escherichia coli incubated for 30 mins by time-resolved fluorescence assay; design: species or system Hepatitis C virus (isolate BK)
[2] = biological target: Hepatitis C virus serine protease, NS3/NS4A (Hepatitis C virus, UniProt A3EZI9+D2K2A8, R155K); experiment: Inhibition of HCV genotype 1b BK NS3/4A protease R155K mutant expressed in Escherichia coli incubated for 30 mins by time-resolved fluorescence assay; design: species or system Hepatitis C virus (isolate BK)
[3] = Inhibition of HCV subtype 3a NS3/4A protease incubated for 30 mins by time-resolved fluorescence assay; design: species or system Hepatitis C virus subtype 3a
[4] = Inhibition of HCV genotype 1b BK NS3/4A protease expressed in Escherichia coli incubated for 30 mins by time-resolved fluorescence assay; design: species or system Hepatitis C virus (isolate BK)
Genome polyprotein [5] = biological target: Genome polyprotein (Hepacivirus C, UniProt K7XJL6, A156V); experiment: Inhibition of HCV genotype 1b BK NS3/4A protease A156V mutant expressed in Escherichia coli incubated for 30 mins by time-resolved fluorescence assay; design: species or system Hepatitis C virus (isolate BK)
Hepatitis C virus [6] = experiment: Antiviral activity against HCV genotype 1b Con1 infected in human Huh7 cells assessed as inhibition of viral replication in presence of 50% NHS by HCV bicistronic replicon assay; format: functional, organism-based, Hepacivirus hominis; conditions: Con1, Huh-7
[7] = Drug level in Sprague-Dawley rat liver at 5 mg/kg, po measured 4 hrs post dose by LC/MS method; format: ADME, organism-based; design: dose 5 mg/kg, route oral; conditions: read-out: Drug uptake
[8] = Inhibition of HCV genotype 2a JFH NS3/4A protease expressed in Escherichia coli incubated for 30 mins by time-resolved fluorescence assay; design: species or system Hepatitis C virus JFH-1
Hepatitis C virus [9] = experiment: Antiviral activity against HCV genotype 1b Con1 infected in human Huh7 cells assessed as inhibition of viral replication in presence of 10% FBS by HCV bicistronic replicon assay; format: functional, organism-based, Hepacivirus hominis; conditions: Con1, Huh-7
Genome polyprotein [10] = biological target: Genome polyprotein (Hepacivirus C, UniProt K7XJL6, D168V); experiment: Inhibition of HCV genotype 1b BK NS3/4A protease D168V mutant expressed in Escherichia coli incubated for 30 mins by time-resolved fluorescence assay; design: species or system Hepatitis C virus (isolate BK)

| SMILES | Ki (Genome polyprotein [1]) [nM] | Ki [2] [nM] | Ki [3] [nM] | Ki [4] [nM] | Ki (Genome polyprotein [5]) [nM] | IC50 (Hepatitis C virus [6]) [nM] | concentration at 4 h [7] [µM] | Ki [8] [nM] | IC50 (Hepatitis C virus [9]) [nM] | Ki (Genome polyprotein [10]) [nM] |
| --- | --- | --- | --- | --- | --- | --- | --- | --- | --- | --- |
| C=C[C@@H]1C[C@]1(NC(=O)[C@@H]1C[C@@H]2CN1C(=O)[C@H](C1CCCC1)NC(=O)N1CC(C1)OCCC/C=C/c1cc3ccc(OC)cc3nc1O2)C(=O)NS(=O)(=O)C1CC1 | 28 | 0.5 | 38 | < 0.05 |  |  |  |  |  |  |
| C=C[C@@H]1C[C@]1(NC(=O)[C@@H]1C[C@@H]2CN1C(=O)[C@H](C1CCCC1)NC(=O)O[C@@H]1CCC(CCCc3cc4c(cc(OCC)nc4cc3OC)O2)C1)C(=O)NS(=O)(=O)C1CC1 (mixture of isomers) | 4.6 | 2 | 5 | < 0.05 | 46 | 24 |  |  |  |  |
| C=C[C@@H]1C[C@]1(NC(=O)[C@@H]1C[C@@H]2CN1C(=O)[C@H](C1CCCC1)NC(=O)O[C@@H]1COC[C@H]1CCC/C=C/c1cc3ccc(OC)cc3nc1O2)C(=O)NS(=O)(=O)C1CC1 | 7.8 | 0.1 | 5.7 | < 0.05 | 64 | 5 |  |  |  |  |
| C=C[C@@H]1C[C@]1(NC(=O)[C@@H]1C[C@@H]2CN1C(=O)[C@H](C1CCCC1)NC(=O)O[C@@H]1CCC[C@H]1C/C=C/c1cc3c(cc(OCC)nc3cc1OC)O2)C(=O)NS(=O)(=O)C1CC1 | 0.8 | 0.5 | 4.6 | < 0.05 | 15 | 17 | 10.2 |  |  |  |
| C=C[C@@H]1C[C@]1(NC(=O)[C@@H]1C[C@@H]2CN1C(=O)[C@H](C1CCCC1)NC(=O)O[C@@H]1CCC[C@@]1(C)C/C=C/c1cc3c(cc(OCC)nc3cc1OC)O2)C(=O)NS(=O)(=O)C1CC1 | 49 | 0.9 | 4.1 | < 0.05 |  | 38 |  |  |  |  |
| C=C[C@@H]1C[C@]1(NC(=O)[C@@H]1C[C@@H]2CN1C(=O)[C@H](C1CCCCC1)NC(=O)O[C@@H]1CCC[C@H]1C/C=C/c1cc3c(cc(OCC)nc3cc1OC)O2)C(=O)NS(=O)(=O)C1CC1 | 2 | 1.3 | 3.1 | < 0.05 | 40 | 55 | 37.1 |  |  |  |
| C=C[C@@H]1C[C@]1(NC(=O)[C@@H]1C[C@@H]2CN1C(=O)[C@H](C1CCCCC1)NC(=O)O[C@@H]1CCCC[C@H]1C/C=C/c1cc3c(cc(OCC)nc3cc1OC)O2)C(=O)NS(=O)(=O)C1CC1 | 42 | 1.5 | 12.6 | < 0.05 | 567 | 25 |  |  |  |  |
| C=C[C@@H]1C[C@]1(NC(=O)[C@@H]1C[C@@H]2CN1C(=O)[C@H](C1CCCC1)NC(=O)N(C)[C@@H]1CCC[C@H]1C/C=C/c1cc3c(cc(OCC)nc3cc1OC)O2)C(=O)NS(=O)(=O)C1CC1 | 1.7 | 0.6 | 1.5 | < 0.05 | 18 | 25 | 15.9 |  |  |  |
| C=C[C@@H]1C[C@]1(NC(=O)[C@@H]1C[C@@H]2CN1C(=O)[C@H](C1CCCC1)NC(=O)OC1CCC1C/C=C/c1cc3c(cc(OCC)nc3cc1OC)O2)C(=O)NS(=O)(=O)C1CC1 (mixture of isomers) | 52 | 2.2 | 18 | < 0.05 |  |  |  |  |  |  |
| C=C[C@@H]1C[C@]1(NC(=O)[C@@H]1C[C@@H]2CN1C(=O)[C@H](C1CCCC1)NC(=O)N1CC[C@@H](C1)OCCCCCc1cc3ccc(OC)cc3nc1O2)C(=O)NS(=O)(=O)C1CC1 | 1.5 | 0.1 | 5.9 | < 0.05 | 22 | 31 | 12 |  |  |  |
| C=C[C@@H]1C[C@]1(NC(=O)[C@@H]1C[C@@H]2CN1C(=O)[C@H](C1CCCCC1)NC(=O)N1CC[C@H](C1)OC/C=C/c1cc3c(cc(OCC)nc3cc1OC)O2)C(=O)NS(=O)(=O)C1CC1 | 2.4 | 0.3 | 3.6 | < 0.05 | 134 | 29 |  |  |  |  |
| C=C[C@@H]1C[C@]1(NC(=O)[C@@H]1C[C@@H]2CN1C(=O)[C@H](C1CCCCC1)NC(=O)N1CC(C1)OCCC/C=C/c1cc3c(cc(OCC)nc3cc1OC)O2)C(=O)NS(=O)(=O)C1CC1 | 0.2 | 0.2 | 0.9 | < 0.05 | 6.1 | 64 | 4 |  |  |  |
| C=C[C@@H]1C[C@]1(NC(=O)[C@@H]1C[C@@H]2CN1C(=O)[C@H](C1CCCCC1)NC(=O)O[C@@H]1COC[C@H]1C/C=C/c1cc3c(cc(OCC)nc3cc1OC)O2)C(=O)NS(=O)(=O)C1CC1 | 0.7 | 0.5 | 1.9 | < 0.05 | 23 | 18 | 0.3 |  |  |  |
| C=C[C@@H]1C[C@]1(NC(=O)[C@@H]1C[C@@H]2CN1C(=O)[C@H](C1CCCC1)NC(=O)OCC(C)(C)C[C@@H]1C[C@@H]1c1cc3c(cc(OCC)nc3cc1OC)O2)C(=O)NS(=O)(=O)C1CC1 | 2.8 | 0.2 | 1 | 0.016 | 14 | 11 | 27 | 0.14 | 2.3 | 1.8 |
| C=C[C@@H]1C[C@]1(NC(=O)[C@@H]1C[C@@H]2CN1C(=O)[C@H](C1CCCCC1)NC(=O)N1CCC(CC1)OCCC/C=C/c1cc3ccc(OC)cc3nc1O2)C(=O)NS(=O)(=O)C1CC1 | 11 | 0.3 | 27 | < 0.05 |  |  |  |  |  |  |
| C=C[C@@H]1C[C@]1(NC(=O)[C@@H]1C[C@@H]2CN1C(=O)[C@H](C1CCCC1)NC(=O)O[C@@H]1CCC[C@H]1CCC/C=C/c1cc3ccc(OC)cc3nc1O2)C(=O)NS(=O)(=O)C1CC1 | 17 | 0.2 | 11.6 | < 0.05 |  | 58 | 30.8 |  |  |  |
| C=C[C@@H]1C[C@]1(NC(=O)[C@@H]1C[C@@H]2CN1C(=O)[C@H](C1CCCCC1)NC(=O)N1CCO[C@H](CCCCc3cc4c(cc(OCC)nc4cc3OC)O2)C1)C(=O)NS(=O)(=O)C1CC1 | 6.9 | 1 | 5.2 | < 0.05 |  | 9 |  |  |  |  |
| C=C[C@@H]1C[C@]1(NC(=O)[C@@H]1C[C@@H]2CN1C(=O)[C@H](C1CCCC1)NC(=O)N1CC[C@@H](C1)OCCC/C=C/c1cc3ccc(OC)cc3nc1O2)C(=O)NS(=O)(=O)C1CC1 | 2.9 | 0.1 | 3 | 0.016 | 37 | 32 | 8.6 | 0.17 | 3.1 | 1.2 |
| C=C[C@@H]1C[C@]1(NC(=O)[C@@H]1C[C@@H]2CN1C(=O)[C@H](C1CCCC1)NC(=O)N1CC(OCC)(CCCCc3cc4c(cc(OCC)nc4cc3OC)O2)C1)C(=O)NS(=O)(=O)C1CC1 | 7.1 | 0.9 | 1 | < 0.05 |  | 18 |  |  |  |  |
| C=C[C@@H]1C[C@]1(NC(=O)[C@@H]1C[C@@H]2CN1C(=O)[C@H](C1CCCC1)NC(=O)O[C@H]1C[C@H](C/C=C/c3cc4c(cc(OCC)nc4cc3OC)O2)C1)C(=O)NS(=O)(=O)C1CC1 | 4.8 | 2.4 | 7.7 | < 0.05 | 16 | 16 |  |  |  |  |
| C=C[C@@H]1C[C@]1(NC(=O)[C@@H]1C[C@@H]2CN1C(=O)[C@H](C1CCCC1)NC(=O)OCC(C)(C)CCCc1cc3c(cc(OCC)nc3cc1OC)O2)C(=O)NS(=O)(=O)C1CC1 |  | 1.2 | 2.1 | 0.016 |  |  |  | 0.14 |  | 2.2 |
| C=C[C@@H]1C[C@]1(NC(=O)[C@@H]1C[C@@H]2CN1C(=O)[C@H](C1CCCCC1)NC(=O)N1CC[C@@H](C1)OC/C=C/c1cc3c(cc(OCC)nc3cc1OC)O2)C(=O)NS(=O)(=O)C1CC1 | 0.4 | 0.2 | 1.4 | < 0.05 | 6.8 | 43 | 4.8 |  |  |  |
| C=C[C@@H]1C[C@]1(NC(=O)[C@@H]1C[C@@H]2CN1C(=O)[C@H](C1CCCCC1)NC(=O)N1CCC[C@@H](C1)OCCCc1cc3c(cc(OCC)nc3cc1OC)O2)C(=O)NS(=O)(=O)C1CC1 | 1.9 | 1.2 | 2.3 | < 0.05 | 46 | 23 | 4.4 |  |  |  |
| C=C[C@@H]1C[C@]1(NC(=O)[C@@H]1C[C@@H]2CN1C(=O)[C@H](C1CCCCC1)NC(=O)N1CCC(CC1)OCCC/C=C/c1cc3c(cc(OCC)nc3cc1OC)O2)C(=O)NS(=O)(=O)C1CC1 | 0.7 | 0.2 | 2.1 | < 0.05 | 18 | 32 | 11 |  |  |  |
